This passage reports Ki results from ChEMBL document CHEMBL1135997, “Nonaromatic sulfonamide group as an ideal anchor for potent human carbonic anhydrase inhibitors: role of hydrogen-bonding networks in ligand binding and drug design” (J Med Chem, 2002).

As a reminder, the Ki is the equilibrium dissociation constant of an inhibitor or competing ligand from its target. A higher Ki goes with lower affinity.

Experiment [1] has as its target Carbonic anhydrase 1 (Homo sapiens, UniProt P00915).
Experiment [2] addresses Carbonic anhydrase 2 (Homo sapiens, UniProt P00918).

Carbonic anhydrase 1, sequence (P00915 whole entry): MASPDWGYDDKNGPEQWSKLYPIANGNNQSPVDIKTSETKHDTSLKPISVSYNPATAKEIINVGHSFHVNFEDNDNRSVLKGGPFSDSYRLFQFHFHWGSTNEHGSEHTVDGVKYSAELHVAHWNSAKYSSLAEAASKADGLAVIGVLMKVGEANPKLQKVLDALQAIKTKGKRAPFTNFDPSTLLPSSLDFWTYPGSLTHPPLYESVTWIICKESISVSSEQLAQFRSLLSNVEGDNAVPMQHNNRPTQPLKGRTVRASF

For `NS(=O)(=O)NS(=O)(=O)c1c(F)c(F)c(F)c(F)c1F`, the results for the Ki in experiment [1] and in experiment [2] were 3 nM and 10 nM, respectively.
In the same order, the values of `NS(=O)(=O)NC(=O)NS(=O)(=O)c1ccc(F)cc1` are 6 nM and 20 nM.
In experiment [2], `C/C(=N/S(N)(=O)=O)c1ccc(N(C)C)cc1` registered a Ki of 20 nM.
As to `NS(=O)(=O)NS(=O)(=O)c1cccc(C(=O)O)c1`, the Ki amounted to 6 nM in experiment [1] and 10 nM in experiment [2].
Regarding `O=S(=O)(O)NS(=O)(=O)c1c(F)c(F)c(F)c(F)c1F` [(PENTAFLUOROPHENYL)SULFONYLSULFAMIC ACID], the inhibition constant (Ki) turned out to be 50 nM in experiment [1] and 1200 nM in experiment [2].
On to `O=C(NS(=O)(=O)O)NS(=O)(=O)c1ccc(F)cc1`, for which the inhibition constant Ki in experiment [1] turned out to be 80 nM; in experiment [2], 900 nM.
